Data reported in the supplement of paper PMC10307832.

Experiments:
Test in all cases: relative viability (nuclei count vs DMSO), 5 days (fraction); higher = more cells survive
XMD13-2 + Alpelisib = compound: C1CC1C(=O)NC2=NNC3=C2C=CC(=C3)C4=CC(=CC=C4)C(=O)NC5CC5 [XMD13-2] + Cc1nc(NC(=O)N2CCC[C@H]2C(N)=O)sc1-c1ccnc(C(C)(C)C(F)(F)F)c1 [Alpelisib] (partner 2 µM)
Method in brief: (§1)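 Nuclei were stained with Hoechst during a one-step fixation (final 0.05% Triton X-100, 1% formaldehyde, 1 ug/ml Hoechst) carried out 5 days after dosing, then counted on 4× images. The cells, lung cancer lines in 1536-well plates, had been dosed by pin tool the day after seeding with one drug alone or a fixed anchor-drug dose plus five library-drug doses (not always all listed) in √10 steps. Relative viability is the nuclei count in treated wells divided by that in vehicle wells, and each value is the median of duplicate plates.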

ALW-II-49-7 + Lapatinib = compound: Cc1ccc(C(=O)Nc2cccc(C(F)(F)F)c2)cc1Nc1cncc(C(N)=O)c1 [ALW-II-49-7] + CS(=O)(=O)CCNCc1ccc(-c2ccc3ncnc(Nc4ccc(OCc5cccc(F)c5)c(Cl)c4)c3c2)o1 [Lapatinib] (partner 2 µM)
Method in brief: as §1

ALW-II-49-7 + Pemetrexed = compound: Cc1ccc(C(=O)Nc2cccc(C(F)(F)F)c2)cc1Nc1cncc(C(N)=O)c1 [ALW-II-49-7] + Nc1nc2[nH]cc(CCc3ccc(C(=O)N[C@@H](CCC(=O)O)C(=O)O)cc3)c2c(=O)[nH]1 [Pemetrexed] (partner 0.2 µM)
Method in brief: as §1

Dasatinib + Olaparib = compound: Cc1nc(Nc2ncc(C(=O)Nc3c(C)cccc3Cl)s2)cc(N2CCN(CCO)CC2)n1 [Dasatinib] + O=C(c1cc(Cc2n[nH]c(=O)c3ccccc23)ccc1F)N1CCN(C(=O)C2CC2)CC1 [Olaparib] (partner 8 µM)
Method in brief: as §1

Cell Line	relative viability (XMD13-2 + Alpelisib; first compound 0.05 µM)	relative viability (XMD13-2 + Alpelisib; first compound 0.1581 µM)	relative viability (XMD13-2 + Alpelisib; first compound 0.5 µM)	relative viability (XMD13-2 + Alpelisib; first compound 1.581 µM)	relative viability (XMD13-2 + Alpelisib; first compound 5 µM)	relative viability (ALW-II-49-7 + Lapatinib; first compound 0.08 µM)	relative viability (ALW-II-49-7 + Lapatinib; first compound 0.253 µM)	relative viability (ALW-II-49-7 + Lapatinib; first compound 0.8 µM)	relative viability (ALW-II-49-7 + Lapatinib; first compound 2.53 µM)	relative viability (ALW-II-49-7 + Lapatinib; first compound 8 µM)	relative viability (ALW-II-49-7 + Pemetrexed; first compound 0.08 µM)	relative viability (ALW-II-49-7 + Pemetrexed; first compound 0.253 µM)	relative viability (ALW-II-49-7 + Pemetrexed; first compound 0.8 µM)	relative viability (ALW-II-49-7 + Pemetrexed; first compound 2.53 µM)	relative viability (ALW-II-49-7 + Pemetrexed; first compound 8 µM)	relative viability (Dasatinib + Olaparib; first compound 0.005 µM)	relative viability (Dasatinib + Olaparib; first compound 0.01581 µM)	relative viability (Dasatinib + Olaparib; first compound 0.05 µM)	relative viability (Dasatinib + Olaparib; first compound 0.1581 µM)	relative viability (Dasatinib + Olaparib; first compound 0.5 µM)
PC-14	1.01	0.936	1.01	0.931	1.11	0.286	0.303	0.308	0.331	0.292	0.15	0.165	0.13	0.138	0.113	0.29	0.31	0.368	0.224	0.0781
RERF-LC-KJ	0.776	0.902	0.842	0.641	0.91	0.867	0.948	0.867	0.941	0.859	0.475	0.518	0.472	0.439	0.478	0.906	0.836	0.87	0.788	0.816
SK-LU-1	1.3	1.09	1.27	0.945	0.6	0.738	0.984	0.774	–	0.607	0.992	1.08	1.04	0.834	0.569	0.471	0.317	0.323	0.188	0.167
SK-MES-1	0.935	0.922	0.869	0.876	1.04	0.481	0.458	0.477	0.487	0.474	0.888	0.964	0.916	0.867	0.686	0.766	0.794	0.56	0.214	0.151
SW 1573	1.03	0.711	1.01	0.676	0.666	1.14	1.21	1.1	1.2	1.15	0.608	0.847	0.77	0.667	0.827	0.424	0.378	0.347	0.253	0.327
